The source made the active and inactive calls. The calls are words filed in the database; no cut-off is given here.
Experiments:
[1] = test system: Human immunodeficiency virus 1; assay: Resistance ratio of IC50 for MLV pseudotyped HIV1 NL4-3 expressing integrase E138A mutant to IC50 for MLV pseudotyped HIV1 NL4-3 expressing wild type integrase; format: functional
[2] = test system: Human immunodeficiency virus 1; assay: Resistance ratio of IC50 for MLV pseudotyped HIV1 NL4-3 expressing integrase E92Q/N155H mutant to IC50 for MLV pseudotyped HIV1 NL4-3 expressing wild type integrase; format: functional
[3] = test system: Human immunodeficiency virus 1; assay: Resistance ratio of IC50 for MLV pseudotyped HIV1 NL4-3 expressing integrase N155H mutant to IC50 for MLV pseudotyped HIV1 NL4-3 expressing wild type integrase; format: functional
[4] = test system: Human immunodeficiency virus 1; assay: Resistance ratio of IC50 for MLV pseudotyped HIV1 NL4-3 expressing integrase V72I/F121Y/T125K mutant to IC50 for MLV pseudotyped HIV1 NL4-3 expressing wild type integrase; format: functional
[5] = test system: Human immunodeficiency virus 1; assay: Resistance ratio of IC50 for MLV pseudotyped HIV1 NL4-3 expressing integrase T125K/F121Y mutant to IC50 for MLV pseudotyped HIV1 NL4-3 expressing wild type integrase; format: functional
[6] = test system: Human immunodeficiency virus 1; assay: Resistance ratio of IC50 for MLV pseudotyped HIV1 NL4-3 expressing integrase T66I/S153Y mutant to IC50 for MLV pseudotyped HIV1 NL4-3 expressing wild type integrase; format: functional
[7] = test system: Human immunodeficiency virus 1; assay: Antiviral activity against HIV1 ZA97003 infected in human PBMC after 5 days by human JC53BL cell-based beta-galactosidase reporter gene assay; format: functional, organism-based; conditions: Human immunodeficiency virus 1, ZA97003, JC53BL, 120 h
[8] = test system: Human immunodeficiency virus 1; assay: Antiviral activity against HIV1 UG94118 infected in human PBMC after 5 days by human JC53BL cell-based beta-galactosidase reporter gene assay; format: functional, organism-based; conditions: Human immunodeficiency virus 1, UG94118, JC53BL, 120 h
[9] = test system: Human immunodeficiency virus 1; assay: Antiviral activity against HIV1 UG92037 infected in human PBMC after 5 days by human JC53BL cell-based beta-galactosidase reporter gene assay; format: functional, organism-based; conditions: Human immunodeficiency virus 1, UG92037, JC53BL, 120 h
[10] = test system: Human immunodeficiency virus 1; assay: Antiviral activity against HIV1 SF162 infected in human PBMC after 5 days by human JC53BL cell-based beta-galactosidase reporter gene assay; format: functional, organism-based; conditions: Human immunodeficiency virus 1, SF162, JC53BL, 120 h
[11] = test system: Human immunodeficiency virus 1; assay: Antiviral activity against HIV1 HT92599 infected in human PBMC after 5 days by human JC53BL cell-based beta-galactosidase reporter gene assay; format: functional, organism-based; conditions: Human immunodeficiency virus 1, HT92599, JC53BL, 120 h
[12] = test system: Human immunodeficiency virus 1; assay: Antiviral activity against HIV1 HT92596 infected in human PBMC after 5 days by human JC53BL cell-based beta-galactosidase reporter gene assay; format: functional, organism-based; conditions: Human immunodeficiency virus 1, HT92596, JC53BL, 120 h
[13] = test system: Human immunodeficiency virus 1; assay: Antiviral activity against HIV1 CMU06 infected in human PBMC after 5 days by human JC53BL cell-based beta-galactosidase reporter gene assay; format: functional, organism-based; conditions: Human immunodeficiency virus 1, CMU06, JC53BL, 120 h
[14] = test system: Human immunodeficiency virus 1; assay: Antiviral activity against HIV1 BR92004 infected in human PBMC after 5 days by human JC53BL cell-based beta-galactosidase reporter gene assay; format: functional, organism-based; conditions: Human immunodeficiency virus 1, BR92004, JC53BL, 120 h
[15] = Selectivity ratio of CC50 for HIV1 NL4-3 infected in human MT2 cells to IC50 for human MT2 cells; format: ADME, cell-based; conditions: read-out: Ratio CC50/IC50
[16] = Cytotoxicity against human MT2 cells after 3 days by CellTitre-Glo assay; format: cell-based
[17] = Inhibition of DNA polymerase alpha (unknown origin); design: species or system Homo sapiens
[18] = Inhibition of DNA polymerase beta (unknown origin); design: species or system Homo sapiens
[19] = molecular target: Human immunodeficiency virus type 1 integrase (Human immunodeficiency virus 1, UniProt Q7ZJM1); assay: Inhibition of HIV1 HXB2 full length amino terminal 6-HIs tagged integrase expressed in Escherichia coli using [3H]thymidine-labeled DNA/biotinylated ds-DNA as substrate assessed as inhibition of strand transfer after 50 mins by scintillation proximity assay
[20] = Intrinsic clearance in human hepatocytes assessed assessed per million of cells by LC-MS/MS analysis; format: ADME, cell-based, Hepatocyte; conditions: read-out: CLH
[21] = Intrinsic clearance in human liver microsomes assessed per mg of protein by LC-MS/MS analysis in presence of UDPGA; format: ADME; conditions: read-out: CLH
[22] = Intrinsic clearance in human liver microsomes assessed per mg of protein by LC-MS/MS analysis; format: ADME; conditions: read-out: CLH
[23] = Activity at UGT1A2 (unknown origin) assessed as metabolite metabolism; format: ADME; conditions: human
[24] = Volume of distribution at steady state in healthy human at 100 ug, iv; format: ADME, organism-based; conditions: in vivo, read-out: Vdss
[25] = Clearance in healthy human at 100 ug, iv; format: ADME, organism-based; conditions: in vivo
[26] = Half life in dog at 0.1 mg/kg, iv; format: ADME, organism-based, Canis lupus familiaris; design: dose 0.1 mg/kg, route intravenous; conditions: in vivo
Canis familiaris = assay: Clearance in dog at 0.1 mg/kg, iv; format: ADME, organism-based, Canis lupus familiaris; design: dose 0.1 mg/kg, route intravenous; conditions: in vivo
[27] = Oral bioavailability in rat at 2 mg/kg; format: ADME, organism-based; conditions: in vivo
[28] = Half life in rat at 2 mg/kg, po and 2 mg/kg, iv; format: ADME, organism-based; conditions: in vivo
[29] = Volume of distribution at steady state in rat at 2 mg/kg, po and 2 mg/kg, iv; format: ADME, organism-based; conditions: in vivo, read-out: Vdss
Rattus norvegicus = assay: Clearance in rat at 2 mg/kg, po and 2 mg/kg, iv; format: ADME, organism-based; conditions: in vivo
[30] = Plasma protein binding in dog; format: ADME, cell-free, Canis lupus familiaris; conditions: read-out: PPB (converted)
[31] = Plasma protein binding in rat; format: ADME, cell-free; conditions: read-out: PPB
[32] = Clearance in rat hepatocytes assessed per million of cells; format: ADME, cell-based, Hepatocyte; conditions: read-out: CLH
[33] = Clearance in dog liver microsomes assessed per mg of protein in presence of UDPGA; format: ADME, Canis lupus familiaris; conditions: read-out: CLH
[34] = Clearance in rat liver microsomes assessed per mg of protein in presence of UDPGA; format: ADME; conditions: read-out: CLH
[35] = Partition coefficient, pKa of the compound; format: physicochemical; conditions: octanol/water
[36] = test system: Human immunodeficiency virus 1; assay: Antiviral activity against HIV1 infected in human MT2 cells assessed as emergence of breakthrough at 10 times IC50; format: functional, organism-based
[37] = test system: Human immunodeficiency virus 1; assay: Resistance ratio of IC50 for MLV pseudotyped HIV1 NL4-3 expressing integrase G140S/Q148h mutant to IC50 for MLV pseudotyped HIV1 NL4-3 expressing wild type integrase; format: functional
[38] = test system: Human immunodeficiency virus 1; assay: Inhibition of MLV pseudotyped HIV1 NL4-3 expressing integrase G140S/Q148K mutant; format: functional, organism-based
[39] = test system: Human immunodeficiency virus 1; assay: Resistance ratio of IC50 for MLV pseudotyped HIV1 NL4-3 expressing integrase Q148K mutant to IC50 for MLV pseudotyped HIV1 NL4-3 expressing wild type integrase; format: functional
[40] = test system: Human immunodeficiency virus 1; assay: Resistance ratio of IC50 for MLV pseudotyped HIV1 NL4-3 expressing integrase Q148H mutant to IC50 for MLV pseudotyped HIV1 NL4-3 expressing wild type integrase; format: functional
[41] = test system: Human immunodeficiency virus 1; assay: Resistance ratio of IC50 for MLV pseudotyped HIV1 NL4-3 expressing integrase G140S mutant to IC50 for MLV pseudotyped HIV1 NL4-3 expressing wild type integrase; format: functional
[42] = test system: Human immunodeficiency virus 1; assay: Resistance ratio of IC50 for MLV pseudotyped HIV1 NL4-3 expressing integrase G140A mutant to IC50 for MLV pseudotyped HIV1 NL4-3 expressing wild type integrase; format: functional

Chain of Human immunodeficiency virus type 1 integrase (Q7ZJM1 whole entry): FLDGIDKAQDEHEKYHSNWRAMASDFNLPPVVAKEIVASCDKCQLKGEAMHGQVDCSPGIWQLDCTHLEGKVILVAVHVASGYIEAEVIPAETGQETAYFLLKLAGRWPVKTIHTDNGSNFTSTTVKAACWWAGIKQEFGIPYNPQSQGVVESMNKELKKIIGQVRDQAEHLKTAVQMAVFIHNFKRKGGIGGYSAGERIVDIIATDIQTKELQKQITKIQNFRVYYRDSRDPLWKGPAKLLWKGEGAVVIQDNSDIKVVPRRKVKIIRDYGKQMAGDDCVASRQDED

For `COc1cc(F)ccc1Cn1ccc2c3c(ncc21)C(=O)N(O)CC3` [PF-04776548], the “Ratio IC50” value [1] was <10, the “Ratio IC50” value [2] was <10 and the “Ratio IC50” value [3] was <10. The “Ratio IC50” value [4] was <10, the “Ratio IC50” value [5] was <10 and the “Ratio IC50” value [6] was <10. It also gave an EC50 [7] of 0.15 nM, an EC50 [8] of 6.68 nM and an EC50 [9] of 0.84 nM. For the same molecule, the EC50 [10] was 1.68 nM, the EC50 [11] was 0.37 nM and the EC50 [12] was 0.84 nM. The EC50 [13] was 0.61 nM, the EC50 [14] was 0.44 nM and the selectivity ratio [15] was 4800. For the same molecule, the CC50 at 72 h [16] was 7360 nM, the IC50 [17] was > 100000 nM and the IC50 [18] was > 100000 nM. For the same molecule, the IC50 [19] was 40.5 nM, the hepatocyte CLint [20] was 32.7 µL/min/1e6 cells and the microsomal CLint [21] was 28 µL/min/mg. For the same molecule, the microsomal CLint [22] was 8.3 µL/min/mg, the Activity [23] was “Not Active” and the Vd [24] was 5.7 L/kg. It also gave a clearance [25] of 18 mL/min/kg, a half-life [26] of 72 min and a clearance (Canis familiaris) of 24 mL/min/kg. For the same molecule, the bioavailability [27] was 1%, the half-life [28] was 18 min and the Vd [29] was 3 L/kg. For the same molecule, the clearance (Rattus norvegicus) was 98 mL/min/kg, the fraction unbound [30] was 0.16 and the fraction unbound [31] was 0.09. It also gave a hepatocyte CLint [32] of 33 µL/min/1e6 cells, a microsomal CLint [33] of 21 µL/min/mg and a microsomal CLint [34] of 43 µL/min/mg. For the same molecule, the pKa [35] was 7.6, the Activity [36] was “Active” and the “Ratio IC50” value [37] was <10. The inhibition [38] was “inactive”, the “Ratio IC50” value [39] was <10 and the “Ratio IC50” value [40] was <10. For the same molecule, the “Ratio IC50” value [41] was <10 and the “Ratio IC50” value [42] was <10.
